From US7951920B2, “Conjugate of an antibody against CCR5 and an antifusogenic peptide” (Roche Palo Alto LLC, priority 2006, dated 2011)

Legend:
[1] = system: pseudotyped NL-Bal viruses; format: cell-based, HIV; conditions: pseudotyped NL-Bal virus, JC53-BL cells, 3 day incubation, inhibition of luciferase activity
Method: For the production of pseudotyped NL-Bal viruses, plasmid pNL4-3Δenv (HIV pNL4-3 genomic construct with a deletion within the env gene) and pcDNA3.1/NL-BAL env [pcDNA3.1 plasmid containing NL-Bal env gene (obtained from NIBSC Centralized Facility for AIDS Reagents)] were co-transfected into the HEK 293FT cell line (Invitrogen), cultured in Dulbecco's modified […] (DMEM) containing 10% fetal calf serum (FCS), 100 U/mL Penicillin, 100 μg/mL Streptomycin, 2 mM L-glutamine and 0.5 mg/mL geniticin (all media from Invitrogen/Gibco). The supernatants containing pseudotyped viruses were harvested two days following transfection, and cellular debris was removed by filtration through a 0.45 μm pore size PES (polyethersulfone) filter (Nalgene) and stored at −80° C. in aliquots. For normalization in assay performance, virus stock aliquots were used to infect JC53-BL (US NIH Aids Reagent Program) cells yielding approximately 1.5×10^5 RLU (relative light units) per well. Test antifusogenic peptide-anti-CCR5 antibody conjugates, reference antibodies and reference antifusogenic peptides (T-20, T-1249, T-651 and T-2635) were serially diluted in 96-well plates. The assay was carried out in quadruplicates. Each plate contained cell control and virus control wells. The equivalent of 1.5×10^5 RLU of virus stocks were added to each well, then 2.5×10^4 JC53-BL cells were added to each well, with a final assay volume of 200 μl per well. After 3 day incubation at 37° C., 90% Relative Humidity, and 5% CO2, media were aspirated and 50 μl of Steady-Glo® Luciferase Assay System (Promega) was added to each well. The assay plates were read on a Luminometer (Luminoskan, Thermo Electron Corporation) after 10 minutes of incubation at room temperature. Percent inhibition of luciferase activity was calculated for each dose point after subtracting the background, and IC50 and IC90-values were determined by using XLfit curve fitting software for Excel (version 3.0.5 Build12; […]).

[2] = system: CCR5 mutant K171A or E172A; assay: Epitope binding by alanine scanning (epitope mapping); design: species or system human; conditions: 100% epitope binding is defined for wild-type CCR5
From the text: Epitope binding is investigated by using alanine scanning according to the method described by W. C. Olson et al. (J. Virol. (1999) 73:4145-55) for epitope mapping. […] Epitope binding for antibody C is found to be 20% for CCR5 mutant K171A or E172A (glu 172 is mutated to ala). 100% epitope binding is defined for wild-type CCR5. A further preferred anti-CCR5 antibody binds to the same epitope as antibody C binds.

[3] = system: HIV; assay: HIV assays; format: cell-based; conditions: comparison with antibody 2D7

Molecule | Antiviral activity IC50 [1] [µg/mL] | Antiviral activity IC90 [1] [µg/mL] | Epitope binding [2] [%] | IC50 values compared with antibody 2D7 [3]
CC[C@H](C)[C@H](NC(=O)[C@H](CCC(N)=O)NC(=O)[C@H](C)NC(=O)[C@H](CCC(N)=O)NC(=O)[C@H](CCC(=O)O)NC(=O)[C@H](CC(C)C)NC(=O)[C@H](CC(C)C)NC(=O)[C@H](C)NC(=O)[C@@H](NC(=O)[C@@H](NC(=O)[C@H](CCCCN)NC(=O)[C@H](CCC(N)=O)NC(=O)[C@H](CCC(=O)O)NC(=O)[C@H](Cc1c[nH]c2ccccc12)NC(=O)[C@H](CCC(=O)O)NC(=O)[C@H](CCC(N)=O)NC(=O)[C@H](Cc1c[nH]c2ccccc12)NC(C)=O)[C@@H](C)CC)[C@@H](C)O)C(=O)N[C@@H](CCC(N)=O)C(=O)N[C@@H](CCC(N)=O)C(=O)N[C@@H](CCC(=O)O)C(=O)N[C@@H](CCCCN)C(=O)N[C@@H](CC(N)=O)C(=O)N[C@@H](CCC(=O)O)C(=O)N[C@@H](Cc1ccc(O)cc1)C(=O)N[C@@H](CCC(=O)O)C(=O)N[C@@H](CC(C)C)C(=O)N[C@@H](CCC(N)=O)C(=O)N[C@@H](CCCCN)C(=O)N[C@@H](CC(C)C)C(=O)N[C@@H](CC(=O)O)C(=O)N[C@@H](CCCCN)C(=O)N[C@@H](Cc1c[nH]c2ccccc12)C(=O)N[C@@H](C)C(=O)N[C@@H](CO)C(=O)N[C@@H](CC(C)C)C(=O)N[C@@H](Cc1c[nH]c2ccccc12)C(=O)N[C@@H](CCC(=O)O)C(=O)N[C@@H](Cc1c[nH]c2ccccc12)C(=O)N[C@@H](Cc1ccccc1)C(N)=O [T-1249] | 0.011 | 0.09 | – | –
CC[C@H](C)[C@H](NC(=O)[C@H](C)NC(=O)[C@H](CCCNC(=N)N)NC(=O)[C@H](CC(=O)O)NC(=O)[C@H](Cc1c[nH]c2ccccc12)NC(=O)[C@H](C)NC(=O)[C@H](CCC(=O)O)NC(=O)[C@H](Cc1c[nH]c2ccccc12)NC(=O)[C@@H](NC(=O)[C@@H](NC(C)=O)[C@@H](C)O)[C@@H](C)O)C(=O)N[C@@H](C)C(=O)N[C@@H](CCC(=O)O)C(=O)N[C@@H](Cc1ccc(O)cc1)C(=O)N[C@@H](C)C(=O)N[C@@H](C)C(=O)N[C@@H](CCCNC(=N)N)C(=O)N[C@H](C(=O)N[C@@H](CCC(=O)O)C(=O)N[C@@H](C)C(=O)N[C@@H](CC(C)C)C(=O)N[C@H](C(=O)N[C@@H](CCCNC(=N)N)C(=O)N[C@@H](C)C(=O)N[C@@H](C)C(=O)N[C@@H](CCC(N)=O)C(=O)N[C@@H](CCC(=O)O)C(=O)N[C@@H](CCC(N)=O)C(=O)N[C@@H](CCC(N)=O)C(=O)N[C@@H](CCC(=O)O)C(=O)N[C@@H](CCCCN)C(=O)N[C@@H](CC(N)=O)C(=O)N[C@@H](CCC(=O)O)C(=O)N[C@@H](C)C(=O)N[C@@H](C)C(=O)N[C@@H](CC(C)C)C(=O)N[C@@H](CCCNC(=N)N)C(=O)N[C@@H](CCC(=O)O)C(=O)N[C@@H](CC(C)C)C(N)=O)[C@@H](C)CC)[C@@H](C)CC [T-2635] | 0.014 | 0.161 | – | –
enfuvirtide | 0.206 | 3.955 | – | –
Antibody C: anti-CCR5 antibody, variable domains SEQ ID NO:5, 6 (antibody, V domains shown, mouse) VH: QVQLKQSGPGLVRPSQSLSITCTVSGFPLGIFGVHWVRQSPGKGLEWLGVIWKGGNTDYNAAFMSRLRITKDNSKSQVFFRMNSLQTDDTAIYYCAKVNLADAMDYWGQGTSVIVSS VL: DIQMTQSPASLSASVGETVTITCRASGNIHGYLAWFQQKQGKSPQLLVYNTKTLAEGVPSRFSGSGSGTQFSLKINSLQPEDFGNYYCQHHYDLPRTFGGGTKLEIKR | – | – | 20 | lower IC50 values than antibody 2D7
